From ChEMBL document CHEMBL5303765, “Data for DCP probe BAY-7081” (2023)

Experiments:
[1] = biological target: Dual 3',5'-cyclic-AMP and -GMP phosphodiesterase 11A (Homo sapiens, UniProt Q9HCR9); assay: 3H-cAMP and 3H-cGMP Scintillation Proximity Assay (PDE11A)
[2] = biological target: Aldo-keto reductase family 1 member B1 (Rattus norvegicus) (UniProt P07943); assay: Aldose Reductase Eurofins Panlabs panel; conditions: Compound concentration 10.0 uM
[3] = biological target: Nitric oxide synthase 1 (Rattus norvegicus) (UniProt P29476); assay: Nitric Oxide Synthase, Neuronal (nNOS) Eurofins Panlabs panel; conditions: Compound concentration 10.0 uM
[4] = biological target: T1, cGMP-specific 3',5'-cyclic phosphodiesterase (Homo sapiens, UniProt O76074); assay: Phosphodiesterase PDE5 Eurofins Panlabs panel; conditions: Compound concentration 10.0 uM
[5] = biological target: Thromboxane-A synthase (Homo sapiens) (UniProt P24557); assay: Thromboxane Synthase Eurofins Panlabs panel; conditions: concentration not given here
[6] = biological target: D(2) dopamine receptor (Homo sapiens) (UniProt P14416); assay: Dopamine D2L Eurofins Panlabs panel; conditions: Compound concentration 10.0 uM
[7] = biological target: Estrogen receptor (Homo sapiens) (UniProt P03372); assay: Estrogen Eralpha Eurofins Panlabs panel; conditions: Compound concentration 10.0 uM
[8] = biological target: Glutamate receptor ionotropic, kainate (Rattus norvegicus) (UniProt P22756+Q01812+P42260+P42264+Q63273); assay: Glutamate, Kainate Eurofins Panlabs panel; assay type: protein-complex assay; conditions: Compound concentration 10.0 uM
[9] = biological target: Glutamate NMDA receptor (Rattus norvegicus) (UniProt P35439+Q00959+Q00960+Q00961+Q62645+Q8VHN2+Q9R1M7); assay: Glutamate, NMDA, Agonism Eurofins Panlabs panel; assay type: protein-complex assay; conditions: Compound concentration 10.0 uM
[10] = biological target: Insulin receptor (Rattus norvegicus) (UniProt P15127); assay: Insulin Eurofins Panlabs panel; conditions: Compound concentration 10.0 uM
[11] = biological target: T2, Muscarinic acetylcholine receptor M4 (Homo sapiens) (UniProt P08173); assay: Muscarinic M4 Eurofins Panlabs panel; conditions: Compound concentration 10.0 uM
T2 sequence (whole entry): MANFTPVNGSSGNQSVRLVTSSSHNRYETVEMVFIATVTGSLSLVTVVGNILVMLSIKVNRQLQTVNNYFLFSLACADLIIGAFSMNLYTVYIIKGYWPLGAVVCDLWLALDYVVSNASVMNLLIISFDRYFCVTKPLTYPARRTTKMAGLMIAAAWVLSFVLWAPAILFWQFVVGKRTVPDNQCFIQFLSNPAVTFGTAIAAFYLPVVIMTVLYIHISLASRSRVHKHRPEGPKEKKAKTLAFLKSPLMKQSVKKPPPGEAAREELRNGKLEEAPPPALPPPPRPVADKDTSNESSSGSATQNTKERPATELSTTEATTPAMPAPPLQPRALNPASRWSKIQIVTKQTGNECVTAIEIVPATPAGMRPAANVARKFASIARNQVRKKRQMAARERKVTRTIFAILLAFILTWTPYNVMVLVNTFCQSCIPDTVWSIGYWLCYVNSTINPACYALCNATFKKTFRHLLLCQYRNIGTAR

[12] = biological target: Kappa-type opioid receptor (Homo sapiens) (UniProt P41145); assay: Opiate kappa(OP2, KOP) Eurofins Panlabs panel; conditions: Compound concentration 10.0 uM
[13] = biological target: Purinergic P2Y (Rattus norvegicus) (UniProt O35811+Q9EPX4+P49651+Q63371+P41232+O35881+Q6GUG4); assay: Purinergic P2Y Eurofins Panlabs panel; assay type: protein assay; conditions: Compound concentration 10.0 uM
[14] = biological target: 5-hydroxytryptamine receptor 2B (Homo sapiens) (UniProt P41595); assay: Serotonin (5-Hydroxytryptamine) 5-HT2B Eurofins Panlabs panel; conditions: Compound concentration 10.0 uM
[15] = biological target: T3, 5-hydroxytryptamine receptor 2C (Homo sapiens) (UniProt P28335); assay: Serotonin (5-Hydroxytryptamine) 5-HT2C Eurofins Panlabs panel; conditions: Compound concentration 10.0 uM
T3 sequence (whole entry): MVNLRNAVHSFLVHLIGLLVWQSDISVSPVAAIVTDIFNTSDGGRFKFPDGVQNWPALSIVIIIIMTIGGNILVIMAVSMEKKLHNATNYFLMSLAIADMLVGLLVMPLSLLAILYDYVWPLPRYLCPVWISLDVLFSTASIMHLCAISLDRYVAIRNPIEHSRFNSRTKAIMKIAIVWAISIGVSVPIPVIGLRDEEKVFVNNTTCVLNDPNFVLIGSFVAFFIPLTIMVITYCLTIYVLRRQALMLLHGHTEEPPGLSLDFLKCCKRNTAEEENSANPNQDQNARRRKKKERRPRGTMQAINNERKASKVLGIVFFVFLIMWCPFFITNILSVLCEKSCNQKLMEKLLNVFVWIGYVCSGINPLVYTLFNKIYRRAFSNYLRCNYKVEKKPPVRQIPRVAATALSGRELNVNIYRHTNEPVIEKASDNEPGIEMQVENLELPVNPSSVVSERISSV

[16] = biological target: GABA transporter (Rattus norvegicus) (UniProt P31647+P23978+P31646+P48056); assay: Transporter, GABA Eurofins Panlabs panel; assay type: protein assay; conditions: Compound concentration 10.0 uM
[17] = biological target: L-type calcium channel, dihydropyridine site (Rattus norvegicus, UniProt P22002+P27732+Q02485); assay: Calcium Channel L-Type, Dihydropyridine Eurofins Panlabs panel; assay type: protein assay; conditions: compound concentration 10 uM
[18] = biological target: Sodium-dependent dopamine transporter (Homo sapiens) (UniProt Q01959); assay: Uptake, Dopamine - Antagonist Eurofins Panlabs panel; conditions: Compound concentration 10.0 uM
[19] = biological target: Sigma non-opioid intracellular receptor 1 (Homo sapiens) (UniProt Q99720); assay: Sigma1 Eurofins Panlabs panel; conditions: Compound concentration 10.0 uM
[20] = biological target: Substance-P receptor (Homo sapiens) (UniProt P25103); assay: Tachykinin NK1 Eurofins Panlabs panel; conditions: Compound concentration 10.0 uM
[21] = biological target: Proto-oncogene tyrosine-protein kinase Src (Homo sapiens) (UniProt P12931); assay: SRC SGC Tm panel (DSF); conditions: for ΔTm: Compound concentration 10.0 uM
[22] = biological target: T4, Serine/threonine-protein kinase ULK3 (Homo sapiens) (UniProt Q6PHR2); assay: ULK3 SGC Tm panel (DSF); conditions: for ΔTm: Compound concentration 10.0 uM
T4 sequence (whole entry): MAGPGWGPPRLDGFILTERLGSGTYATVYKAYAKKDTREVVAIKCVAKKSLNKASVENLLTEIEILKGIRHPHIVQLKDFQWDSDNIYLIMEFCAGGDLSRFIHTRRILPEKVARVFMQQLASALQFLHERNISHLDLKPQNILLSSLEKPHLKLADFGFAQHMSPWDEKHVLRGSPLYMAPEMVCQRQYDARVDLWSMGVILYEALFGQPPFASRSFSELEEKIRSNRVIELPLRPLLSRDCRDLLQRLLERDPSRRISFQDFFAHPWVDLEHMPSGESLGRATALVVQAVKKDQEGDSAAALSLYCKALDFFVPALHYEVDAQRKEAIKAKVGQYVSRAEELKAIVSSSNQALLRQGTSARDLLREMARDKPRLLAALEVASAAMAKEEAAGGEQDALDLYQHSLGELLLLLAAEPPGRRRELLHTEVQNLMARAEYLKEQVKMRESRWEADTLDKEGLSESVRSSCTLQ

[23] = biological target: Sodium-dependent serotonin transporter (Homo sapiens) (UniProt P31645); conditions: Compound concentration 10.0 uM
[24] = biological target: cGMP-inhibited 3',5'-cyclic phosphodiesterase 3A (Homo sapiens) (UniProt Q14432); assay: Panlabs assay PDE3A; parameters: compound concentration 10 uM; conditions: at 10 µM
[25] = biological target: T1, cGMP-specific 3',5'-cyclic phosphodiesterase; assay: Panlabs assay PDE5A; parameters: compound concentration 10 uM; conditions: at 10 µM

Sequence of Sodium-dependent serotonin transporter (Homo sapiens) (P31645 whole entry, looked up): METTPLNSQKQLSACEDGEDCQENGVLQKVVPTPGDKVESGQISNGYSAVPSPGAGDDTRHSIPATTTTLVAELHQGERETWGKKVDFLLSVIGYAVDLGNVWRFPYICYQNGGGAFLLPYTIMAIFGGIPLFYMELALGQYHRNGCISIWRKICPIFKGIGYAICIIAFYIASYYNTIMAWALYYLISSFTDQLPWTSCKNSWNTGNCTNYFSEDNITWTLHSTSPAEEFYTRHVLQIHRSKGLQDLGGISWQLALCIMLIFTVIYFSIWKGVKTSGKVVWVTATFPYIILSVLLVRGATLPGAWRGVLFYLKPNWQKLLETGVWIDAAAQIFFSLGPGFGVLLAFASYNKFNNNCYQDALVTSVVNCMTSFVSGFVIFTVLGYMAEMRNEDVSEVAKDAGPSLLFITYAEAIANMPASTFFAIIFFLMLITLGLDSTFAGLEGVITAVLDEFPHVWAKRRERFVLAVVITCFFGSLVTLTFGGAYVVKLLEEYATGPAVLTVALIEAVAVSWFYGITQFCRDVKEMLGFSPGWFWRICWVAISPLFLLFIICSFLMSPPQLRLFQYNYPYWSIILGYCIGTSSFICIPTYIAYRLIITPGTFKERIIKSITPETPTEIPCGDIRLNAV
Sequence of Proto-oncogene tyrosine-protein kinase Src (Homo sapiens) (P12931 2-536 limits assumed): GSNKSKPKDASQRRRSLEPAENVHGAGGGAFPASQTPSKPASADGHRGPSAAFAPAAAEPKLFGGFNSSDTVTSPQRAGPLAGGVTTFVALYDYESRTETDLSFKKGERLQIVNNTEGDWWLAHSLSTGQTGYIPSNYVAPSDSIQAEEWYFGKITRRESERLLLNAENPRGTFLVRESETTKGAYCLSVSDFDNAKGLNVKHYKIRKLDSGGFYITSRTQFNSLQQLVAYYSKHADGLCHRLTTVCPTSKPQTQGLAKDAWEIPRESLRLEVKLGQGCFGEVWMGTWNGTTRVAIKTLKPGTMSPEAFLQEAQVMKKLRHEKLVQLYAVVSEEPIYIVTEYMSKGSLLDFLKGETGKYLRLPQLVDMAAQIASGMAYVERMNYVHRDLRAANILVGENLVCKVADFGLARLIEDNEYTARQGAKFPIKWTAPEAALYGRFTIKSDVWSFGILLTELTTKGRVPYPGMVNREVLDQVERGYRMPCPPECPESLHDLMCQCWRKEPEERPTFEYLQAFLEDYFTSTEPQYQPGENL
Sequence of Sodium-dependent dopamine transporter (Homo sapiens) (Q01959 whole entry): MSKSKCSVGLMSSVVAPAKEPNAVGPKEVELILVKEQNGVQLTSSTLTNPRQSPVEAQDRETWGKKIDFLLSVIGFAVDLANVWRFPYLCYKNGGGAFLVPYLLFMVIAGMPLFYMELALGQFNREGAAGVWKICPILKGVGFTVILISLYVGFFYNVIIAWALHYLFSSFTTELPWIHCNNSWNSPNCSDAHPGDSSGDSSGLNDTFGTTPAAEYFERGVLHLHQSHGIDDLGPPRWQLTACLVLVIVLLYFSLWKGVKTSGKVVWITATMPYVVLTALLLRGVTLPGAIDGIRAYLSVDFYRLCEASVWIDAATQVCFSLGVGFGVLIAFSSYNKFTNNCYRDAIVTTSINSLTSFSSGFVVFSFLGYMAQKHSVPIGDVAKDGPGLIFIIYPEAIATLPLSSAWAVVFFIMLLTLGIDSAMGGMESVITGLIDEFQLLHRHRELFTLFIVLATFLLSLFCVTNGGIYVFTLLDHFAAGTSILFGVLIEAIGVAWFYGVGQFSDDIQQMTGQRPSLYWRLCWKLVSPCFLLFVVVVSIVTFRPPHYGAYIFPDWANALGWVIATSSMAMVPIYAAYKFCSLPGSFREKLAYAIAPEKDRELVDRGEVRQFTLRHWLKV
Sequence of Estrogen receptor (Homo sapiens) (P03372 whole entry): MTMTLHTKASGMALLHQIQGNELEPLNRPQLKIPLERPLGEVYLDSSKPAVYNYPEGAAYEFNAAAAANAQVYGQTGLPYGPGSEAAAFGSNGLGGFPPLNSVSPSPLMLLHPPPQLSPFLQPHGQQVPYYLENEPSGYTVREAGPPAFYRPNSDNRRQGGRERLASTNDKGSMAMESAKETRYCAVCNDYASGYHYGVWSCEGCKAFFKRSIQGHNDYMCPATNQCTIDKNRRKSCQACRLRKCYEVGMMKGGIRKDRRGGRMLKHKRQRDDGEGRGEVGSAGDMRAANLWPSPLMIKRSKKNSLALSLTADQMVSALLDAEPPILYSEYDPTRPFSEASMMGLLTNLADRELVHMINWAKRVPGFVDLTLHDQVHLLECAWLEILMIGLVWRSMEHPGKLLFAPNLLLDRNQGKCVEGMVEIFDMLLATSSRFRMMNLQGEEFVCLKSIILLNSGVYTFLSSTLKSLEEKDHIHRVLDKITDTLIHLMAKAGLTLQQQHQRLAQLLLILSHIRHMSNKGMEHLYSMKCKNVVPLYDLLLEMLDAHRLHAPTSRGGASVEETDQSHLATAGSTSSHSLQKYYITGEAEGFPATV
Sequence of Kappa-type opioid receptor (Homo sapiens) (P41145 whole entry): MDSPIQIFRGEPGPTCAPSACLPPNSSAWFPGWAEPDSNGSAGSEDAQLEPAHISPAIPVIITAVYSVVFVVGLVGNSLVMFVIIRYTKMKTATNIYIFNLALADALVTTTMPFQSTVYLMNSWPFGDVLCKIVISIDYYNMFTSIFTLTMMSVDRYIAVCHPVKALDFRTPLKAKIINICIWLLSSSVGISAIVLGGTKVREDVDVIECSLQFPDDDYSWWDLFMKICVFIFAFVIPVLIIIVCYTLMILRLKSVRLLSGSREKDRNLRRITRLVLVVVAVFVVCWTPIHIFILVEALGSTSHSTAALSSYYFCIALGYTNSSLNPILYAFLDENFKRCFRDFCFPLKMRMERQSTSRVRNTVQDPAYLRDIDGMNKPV
Sequence of 5-hydroxytryptamine receptor 2B (Homo sapiens) (P41595 whole entry): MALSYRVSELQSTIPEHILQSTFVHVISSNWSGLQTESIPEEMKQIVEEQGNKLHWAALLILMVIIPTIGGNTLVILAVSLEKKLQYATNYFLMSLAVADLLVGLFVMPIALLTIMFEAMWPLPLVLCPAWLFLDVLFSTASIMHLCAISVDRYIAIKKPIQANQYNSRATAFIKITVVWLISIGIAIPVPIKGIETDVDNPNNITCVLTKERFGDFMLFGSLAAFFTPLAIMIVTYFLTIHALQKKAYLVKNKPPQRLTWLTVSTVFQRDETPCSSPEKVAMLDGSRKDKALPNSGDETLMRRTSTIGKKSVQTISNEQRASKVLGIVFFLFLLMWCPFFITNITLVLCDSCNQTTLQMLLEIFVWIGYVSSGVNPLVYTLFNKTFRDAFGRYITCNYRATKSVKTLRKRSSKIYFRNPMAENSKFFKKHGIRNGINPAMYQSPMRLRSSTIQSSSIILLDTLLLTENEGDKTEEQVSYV
Sequence of Insulin receptor (Rattus norvegicus) (P15127 27-759 limits assumed): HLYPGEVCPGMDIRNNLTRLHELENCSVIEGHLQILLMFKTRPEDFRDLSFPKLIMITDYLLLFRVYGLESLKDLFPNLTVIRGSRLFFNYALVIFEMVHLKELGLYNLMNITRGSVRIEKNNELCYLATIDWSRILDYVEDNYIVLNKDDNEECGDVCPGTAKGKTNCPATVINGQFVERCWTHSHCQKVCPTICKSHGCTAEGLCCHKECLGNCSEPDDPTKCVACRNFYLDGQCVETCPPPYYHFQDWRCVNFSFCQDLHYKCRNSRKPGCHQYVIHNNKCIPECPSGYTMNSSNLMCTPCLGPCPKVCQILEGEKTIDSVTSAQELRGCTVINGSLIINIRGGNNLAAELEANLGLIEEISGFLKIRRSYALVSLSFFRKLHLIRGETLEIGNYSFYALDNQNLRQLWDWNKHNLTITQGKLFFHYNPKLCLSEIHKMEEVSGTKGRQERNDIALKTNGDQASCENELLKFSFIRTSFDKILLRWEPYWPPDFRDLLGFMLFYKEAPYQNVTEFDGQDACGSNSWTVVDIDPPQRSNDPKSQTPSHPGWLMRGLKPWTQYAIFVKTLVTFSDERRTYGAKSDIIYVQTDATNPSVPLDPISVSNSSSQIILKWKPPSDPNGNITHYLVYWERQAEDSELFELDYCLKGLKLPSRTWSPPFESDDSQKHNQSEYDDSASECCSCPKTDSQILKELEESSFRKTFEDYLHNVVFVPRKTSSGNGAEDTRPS
Sequence of Insulin receptor (Rattus norvegicus) (P15127 764-1383 limits assumed): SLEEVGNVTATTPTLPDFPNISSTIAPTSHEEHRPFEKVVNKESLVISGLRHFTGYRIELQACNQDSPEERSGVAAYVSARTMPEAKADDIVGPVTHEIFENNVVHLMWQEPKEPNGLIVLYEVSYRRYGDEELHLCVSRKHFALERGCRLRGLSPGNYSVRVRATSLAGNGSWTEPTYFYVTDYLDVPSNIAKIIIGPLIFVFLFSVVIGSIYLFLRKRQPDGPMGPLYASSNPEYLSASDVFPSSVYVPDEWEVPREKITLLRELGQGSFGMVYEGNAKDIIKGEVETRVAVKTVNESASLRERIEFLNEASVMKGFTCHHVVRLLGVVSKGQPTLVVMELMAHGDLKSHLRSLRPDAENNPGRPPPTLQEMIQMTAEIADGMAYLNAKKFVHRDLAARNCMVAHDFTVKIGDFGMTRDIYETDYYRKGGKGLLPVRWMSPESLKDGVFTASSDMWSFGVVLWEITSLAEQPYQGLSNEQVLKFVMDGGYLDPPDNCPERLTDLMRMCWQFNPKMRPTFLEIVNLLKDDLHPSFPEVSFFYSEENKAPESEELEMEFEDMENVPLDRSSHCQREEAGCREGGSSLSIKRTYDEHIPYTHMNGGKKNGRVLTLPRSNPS
Sequence of Sigma non-opioid intracellular receptor 1 (Homo sapiens) (Q99720 whole entry): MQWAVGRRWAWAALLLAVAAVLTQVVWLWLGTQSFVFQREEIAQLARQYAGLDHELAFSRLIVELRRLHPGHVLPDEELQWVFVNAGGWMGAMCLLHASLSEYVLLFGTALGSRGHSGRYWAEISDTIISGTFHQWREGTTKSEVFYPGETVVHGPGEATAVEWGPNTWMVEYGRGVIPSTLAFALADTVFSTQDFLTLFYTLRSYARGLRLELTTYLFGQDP

SMILES: CCC[C@H]1CNCc2c1[nH]c(=O)c(C#N)c2N1CCC2(CC1)CC2
- IC50 [1]: 6.6 µM (not active)
- inhibition [2]: 4%
- inhibition [3]: -2%
- inhibition [4]: 59%
- inhibition [5]: 0%
- inhibition [6]: 12%
- inhibition [7]: 8%
- inhibition [8]: -0.5%
- inhibition [9]: 6%
- inhibition [10]: 10%
- inhibition [11]: -4%
- inhibition [12]: 24.2%
- inhibition [13]: 5%
- inhibition [14]: 13%
- inhibition [15]: 5%
- inhibition [16]: 11%
- inhibition at 10 µM [17]: 29%
- inhibition [18]: 22%
- inhibition [19]: -4%
- inhibition [20]: -7%
- delta Tm Staurosporine positive control [21]: 7.39
- ΔTm [21]: -0.143
- delta Tm Staurosporine positive control [22]: 19.1
- ΔTm [22]: -0.0592
- inhibition [23]: 6.23%

SMILES: CCC[C@@H]1CNCc2c1[nH]c(=O)c(C#N)c2N1CCC2(CC1)CC2
- inhibition [24]: -1.3%
- inhibition [25]: 12.2%
- delta Tm Staurosporine positive control [21]: 7.39
- ΔTm [21]: -0.0953
- delta Tm Staurosporine positive control [22]: 19.1
- ΔTm [22]: -0.0429
- inhibition [23]: -1.15%
